The text below walks through data of patent US12410207B2, “Galactoside inhibitor of galectins” (GALECTO BIOTECH AB, priority 2019, dated 2025).

What is called Kd is the equilibrium constant for the complex coming apart. As a reminder, the Papp is the rate of passage across a membrane or cell layer, normalised by area and donor concentration.

One data set concerns galectins. The conditions noted are these: cited from earlier work.
Another data set has as its target Galectin-3 (Homo sapiens, UniProt P17931). Description: Fluorescence anisotropy assay, inhibition of galectin / fluorescein tagged saccharide probe interaction. The conditions noted are these: compound as inhibitor of probe binding. For orientation: In fluorescence polarisation assays a small probe gives low polarisation when free and higher when bound to something large.

The next data set concerns the target Galectin-1 (Homo sapiens, UniProt P09382). The description is as above. The conditions noted are these: compound as inhibitor of probe binding.
The next data set has as its system MDR1. Description: MDCK-MDR1 in vitro cell model of passage over Blood Brain Barrier. The format is in vitro ADME. The conditions noted are these: dog.
The subject of another data set is MDCK-MDR1. The data set is described as above. It counts as in vitro ADME. The conditions noted are these: MDCK-MDR1, result in words.
Data set [1] in a line: In vivo mouse pharmacokinetic experiment (plasma and brain). On the procedure:
FIG. 1 compares the mean plasma levels after IV and PO administration
FIG. 2 compares the mean brain tissue concertation after IV and PO administration
The ratio between exposure of example 35 in brain compared to plasma is determined to AUCbrain/AUCplasma=0.19 after oral administration. (AUC=area under the curve)

Where [2] appears, read: MDCK-MDR1, first column, headed A > B.
Setting [3] is: MDCK-MDR1, second column, also headed A > B.

Chain of Galectin-1 (P09382 whole entry, species assumed): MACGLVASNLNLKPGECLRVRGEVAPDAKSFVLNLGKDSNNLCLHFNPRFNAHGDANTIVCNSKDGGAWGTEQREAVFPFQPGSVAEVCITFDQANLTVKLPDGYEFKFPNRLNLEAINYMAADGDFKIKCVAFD
Chain of Galectin-3 (P17931 whole entry, species assumed): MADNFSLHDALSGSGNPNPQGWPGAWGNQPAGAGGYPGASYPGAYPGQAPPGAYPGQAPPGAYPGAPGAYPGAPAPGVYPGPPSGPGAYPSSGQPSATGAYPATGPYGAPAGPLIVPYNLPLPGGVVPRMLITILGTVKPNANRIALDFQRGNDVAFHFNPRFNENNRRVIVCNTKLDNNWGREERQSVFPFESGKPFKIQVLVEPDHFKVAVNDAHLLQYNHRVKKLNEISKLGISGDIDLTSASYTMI

On to `O=C[C@H](O)[C@@H](O)[C@@H](O)[C@H](O)CO` [D-galactose], for which, in the data set on galectins (relative to lactose), the “affinity, times lower than lactose” value was 50-100 times.

`OCC1O[C@H](Sc2cncc(Cl)c2)C(O)C(n2cc(-c3cc(F)c(Cl)c(F)c3)cn2)[C@H]1O` (stereo partly drawn) [Example 2, 5-Chloropyridin-3-yl 3-[4-(4-chloro-3,5-difluorophenyl)-1H-1,2-pyrazol-1-yl]-3-deoxy-1-thio-α-D-galactopyranoside]: the Kd came out at 0.02 µM on Galectin-3 and 27.6 µM on Galectin-1. Besides, the figures for the Papp in the data set with MDR1 (setting [2]) and with MDR1 (setting [3]) were 25 ×10⁻⁶ cm/s and 50 ×10⁻⁶ cm/s, respectively. The “efflux and uptake in in vitro cell model of BBB passage” value (from here on “efflux and uptake”) in the data set on MDCK-MDR1 was “low or no efflux and high uptake”.

`OCC1O[C@H](Sc2cncc(Cl)c2)C(O)C(n2cc(-c3cc(F)c(F)c(F)c3)cn2)[C@H]1O` (stereo partly drawn) [Example 3, 5-Chloropyridin-3-yl 3-deoxy-3-[4-(3,4,5-trifluorophenyl)-1H-1,2-pyrazol-1-yl]-1-thio-α-D-galactopyranoside]: the Kd amounted to 0.028 µM on Galectin-3 and 12.8 µM on Galectin-1. Besides, the Papp stood at 14 ×10⁻⁶ cm/s in the data set on MDR1 (setting [2]) and 39 ×10⁻⁶ cm/s with MDR1 (setting [3]). The “efflux and uptake” value in the data set with MDCK-MDR1 was “low or no efflux and high uptake”.

On to `OCC1O[C@H](Sc2cncc(Br)c2)C(O)C(n2cc(-c3cc(F)c(Cl)c(F)c3)cn2)[C@H]1O` (stereo partly drawn) [Example 6, 5-Bromopyridin-3-yl 3-[4-(4-chloro-3,5-difluorophenyl)-1H-1,2-pyrazol-1-yl]-3-deoxy-1-thio-α-D-galactopyranoside], for which the values for the Kd on Galectin-3 and on Galectin-1 were 0.016 µM and 23 µM, respectively. Also, the Papp with MDR1 (setting [2]) was determined as 18 ×10⁻⁶ cm/s; with MDR1 (setting [3]), 52 ×10⁻⁶ cm/s. The “efflux and uptake” value in the data set on MDCK-MDR1 is “low or no efflux and high uptake”.

As to `N#Cc1ncc(Cl)cc1S[C@H]1OC(CO)[C@H](O)C(n2cc(-c3cc(F)c(F)c(F)c3)cn2)C1O` (stereo partly drawn) [Example 12, 5-Chloro-2-cyanopyridin-3-yl 3-deoxy-3-[4-(3,4,5-trifluorophenyl)-1H-1,2-pyrazol-1-yl]-1-thio-α-D-galactopyranoside], the Kd on Galectin-3 was found to be 0.021 µM; on Galectin-1, 8.2 µM. In addition, the Papp was determined as 12 ×10⁻⁶ cm/s in the data set on MDR1 (setting [2]) and 51 ×10⁻⁶ cm/s in the data set with MDR1 (setting [3]). In addition, in the data set with MDCK-MDR1, the “efflux and uptake” value is “low or no efflux and high uptake”.

In the case of `N#Cc1ncc(Br)cc1S[C@H]1OC(CO)[C@H](O)C(n2cc(-c3cc(F)c(F)c(F)c3)cn2)C1O` (stereo partly drawn) [Example 15, 5-Bromo-2-cyanopyridin-3-yl 3-deoxy-3-[4-(3,4,5-trifluorophenyl)-1H-1,2-pyrazol-1-yl]-1-thio-α-D-galactopyranoside], the Kd at Galectin-3 stood at 0.011 µM; on Galectin-1, 4.8 µM. The Papp in the data set with MDR1 (setting [2]) stood at 12 ×10⁻⁶ cm/s; in the data set with MDR1 (setting [3]), 53 ×10⁻⁶ cm/s. The “efflux and uptake” value in the data set on MDCK-MDR1 is “low or no efflux and high uptake”.

Take `OCC1O[C@H](Sc2cncc(Cl)c2)C(O)C(n2cc(-c3ccc(Cl)c(F)c3)cn2)[C@H]1O` (stereo partly drawn) [Example 17, 5-Chloropyridin-3-yl 3-[4-(4-chloro-3-fluorophenyl)-1H-1,2-pyrazol-1-yl]-3-deoxy-1-thio-α-D-galactopyranoside]: the Kd on Galectin-3 worked out at 0.029 µM; on Galectin-1, 19.7 µM. In addition, the results for the apparent permeability coefficient (Papp) with MDR1 (setting [2]) and in the data set with MDR1 (setting [3]) were 28 ×10⁻⁶ cm/s and 49 ×10⁻⁶ cm/s, respectively. In the data set with MDCK-MDR1, the “efflux and uptake” value was “low or no efflux and high uptake”.

Consider `COC1C(n2cc(-c3cc(F)c(F)c(F)c3)cn2)[C@@H](O)C(CO)O[C@@H]1Sc1cncc(Cl)c1` (stereo partly drawn) [Example 32, 5-Chloropyridin-3-yl 3-deoxy-3-[4-(3,4,5-trifluorophenyl)-1H-1,2-pyrazol-1-yl]-2-O-methyl-1-thio-α-D-galactopyranoside], for which the Kd on Galectin-3 was 0.017 µM; at Galectin-1, 6.7 µM. Moreover, the Papp was found to be 30 ×10⁻⁶ cm/s with MDR1 (setting [2]) and 33 ×10⁻⁶ cm/s in the data set on MDR1 (setting [3]). The “efflux and uptake” value in the data set on MDCK-MDR1 was “low or no efflux and high uptake”.

In the case of `COC1C(n2cc(-c3cc(F)c(F)c(F)c3)cn2)[C@@H](O)C(CO)O[C@@H]1Sc1cncc(Br)c1` (stereo partly drawn) [Example 33, 5-Bromopyridin-3-yl 3-deoxy-3-[4-(3,4,5-trifluorophenyl)-1H-1,2-pyrazol-1-yl]-2-O-methyl-1-thio-α-D-galactopyranoside], the Kd was found to be 0.022 µM at Galectin-3 and 3.6 µM on Galectin-1. Besides, the apparent permeability (Papp) in the data set with MDR1 (setting [2]) was 34 ×10⁻⁶ cm/s; in the data set on MDR1 (setting [3]) it was 23 ×10⁻⁶ cm/s. In addition, the “efflux and uptake” value in the data set on MDCK-MDR1 was “low or no efflux and high uptake”.

With `C#Cc1cncc(S[C@H]2OC(CO)[C@H](O)C(n3cc(-c4cc(F)c(F)c(F)c4)cn3)C2OC)c1` (stereo partly drawn) [Example 34, 5-Ethynylpyridin-3-yl 3-deoxy-3-[4-(3,4,5-trifluorophenyl)-1H-1,2-pyrazol-1-yl]-2-O-methyl-1-thio-α-D-galactopyranoside], the figures for the Kd at Galectin-3 and on Galectin-1 were 0.023 µM and 16.5 µM, respectively. Also, the results for the Papp in the data set on MDR1 (setting [2]) and in the data set with MDR1 (setting [3]) were 35 ×10⁻⁶ cm/s and 37 ×10⁻⁶ cm/s, respectively. In addition, in the data set with MDCK-MDR1, the “efflux and uptake” value was “low or no efflux and high uptake”.

For `COC1C(n2cc(-c3cc(F)c(F)c(F)c3)cn2)[C@@H](O)C(CO)O[C@@H]1Sc1cc(Cl)cnc1C#N` (stereo partly drawn) [Example 35, 5-Chloro-2-cyanopyridin-3-yl 3-deoxy-3-[4-(3,4,5-trifluorophenyl)-1H-1,2-pyrazol-1-yl]-2-O-methyl-1-thio-α-D-galactopyranoside], the Kd on Galectin-3 was found to be 0.014 µM; at Galectin-1, 3.1 µM. Moreover, the results for the Papp in the data set with MDR1 (setting [2]) and in the data set with MDR1 (setting [3]) were 23 ×10⁻⁶ cm/s and 35 ×10⁻⁶ cm/s, respectively. In addition, the “efflux and uptake” value in the data set with MDCK-MDR1 is “low or no efflux and high uptake”. Also, the systemic bioavailability result in data set [1] (IV 1 mg/kg and PO 10 mg/kg, FIG. 1) is “excellent systemic bioavailability”. In data set [1] (IV 1 mg/kg and PO 10 mg/kg, FIG. 2), the exposure in brain result is listed as “good exposure in brain”. Further, in data set [1] (brain (relative to plasma), after oral administration (PO 10 mg/kg), read-out: AUCbrain/AUCplasma), the Kp turned out to be 0.19.

Consider `COC1C(n2cc(-c3cc(F)c(F)c(F)c3)cn2)[C@@H](O)C(CO)O[C@@H]1Sc1cc(Cl)ccc1C#N` (stereo partly drawn) [Example 45, 5-Chloro-2-cyanophenyl 3-deoxy-3-[4-(3,4,5-trifluorophenyl)-1H-1,2-pyrazol-1-yl]-2-O-methyl-1-thio-α-D-galactopyranoside], for which the results for the Kd on Galectin-3 and at Galectin-1 were 0.03 µM and 8.5 µM, respectively.

With `OC[C@H]1O[C@@H](O[C@H]2[C@H](O)[C@@H](O)C(O)O[C@@H]2CO)[C@H](O)[C@@H](O)[C@H]1O` (stereo partly drawn) [lactose], on galectins (reviewed by Leffler 2001, Leffler et al. 2004, read-out: Kd, all galectins), the Kd is 500 to 1000 µM.
